Assays:
Conditions in all cases: incubation time: 72 h
HCC1599 [1] = assay: drug sensitivity score (DSS), CellTox Green (DSS (AUC-based score)); higher = stronger drug effect (viability inhibition or cytotoxicity); extreme values may be limits of the assay
In short: (§1)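 Breast cancer cell lines (20 µl suspension) were seeded into 384-well plates holding compound at 5 concentrations in 10-fold steps over a compound-specific 10,000-fold range, then incubated 72 h. CellTox Green fluorescence (485/520 nm) was read first, then CellTiter-Glo luminescence after 10 min at room temperature. Each plate was normalised to 0.1 % DMSO and a positive kill control. The drug sensitivity score was calculated from the area under the fitted dose-response curve.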

BT-549 [2] = assay: as above
In short: as §1

CAL-51 [3] = assay: as above
In short: as §1

MDA-MB-453 [4] = assay: as above
In short: as §1

CAL-148 [5] = assay: as above
In short: as §1

HDQ-P1 [6] = assay: as above
In short: as §1

Hs578T [7] = assay: as above
In short: as §1

MDA-MB-231 [8] = assay: as above
In short: as §1

MFM-223 [9] = assay: as above
In short: as §1

DU-4475 [10] = assay: as above
In short: as §1

CAL-85-1 = assay: normalised viability (% of control), CellTiter-Blue; higher = more viable cells (about 100 = DMSO control)
Method: (§2)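 DSRT, CellTiter-Blue viability, 72 h incubation. Signal is normalised to DMSO and benzethonium chloride controls. Value is the normalised response at dose 3.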

HCC1599 [11] = assay: as above
Method: as §2

BT-549 [12] = assay: as above
Method: as §2

MDA-MB-468 = assay: as above
Method: as §2

CAL-51 [13] = assay: as above
Method: as §2

MDA-MB-436 = assay: as above
Method: as §2

MDA-MB-453 [14] = assay: as above
Method: as §2

SK-BR-3 = assay: as above
Method: as §2

CAL-148 [15] = assay: as above
Method: as §2

HDQ-P1 [16] = assay: as above
Method: as §2

Hs578T [17] = assay: as above
Method: as §2

MDA-MB-231 [18] = assay: as above
Method: as §2

HCC1937 = assay: as above
Method: as §2

MFM-223 [19] = assay: as above
Method: as §2

BT-474 = assay: as above
Method: as §2

DU-4475 [20] = assay: as above
Method: as §2

CAL-120 [21] = assay: as above
Method: as §2

HCC1143 = assay: as above
Method: as §2

CAL-120 [22] = assay: normalised viability (% of control), CellTiter-Blue; higher = more viable cells (about 100 = DMSO control); remark: listed apart in the source
In short: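 384-well plates were pre-loaded with compound in 5 µl medium before 20 µl of breast cancer cell suspension was seeded. Following 72 h incubation, 2.5 µl CellTiter-Blue reagent was added for 2 h at 37 °C. Fluorescence was read at 560/590 nm and plates were normalised to vehicle (100) and a positive kill control (0), checked by Z'-factor. Normalised viability is reported at a single listed concentration of the series.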

CC(=O)[C@]1(O)Cc2c(O)c3c(c(O)c2[C@@H](O[C@H]2C[C@H](N)[C@H](O)[C@H](C)O2)C1)C(=O)c1ccccc1C3=O [Idarubicin]
drug sensitivity score (HCC1599 [1]): 0
drug sensitivity score (BT-549 [2]): 0
drug sensitivity score (CAL-51 [3]): 9.49
drug sensitivity score (MDA-MB-453 [4]): 0
drug sensitivity score (CAL-148 [5]): 12.7
drug sensitivity score (HDQ-P1 [6]): 0
drug sensitivity score (Hs578T [7]): 0
drug sensitivity score (MDA-MB-231 [8]): 0
drug sensitivity score (MFM-223 [9]): 1.56
drug sensitivity score (DU-4475 [10]): 0.488
normalised viability (CAL-85-1; 1 nM): 92.3%
normalised viability (HCC1599 [11]; 10 nM): 97.2%
normalised viability (BT-549 [12]; 10 nM): 82.6%
normalised viability (MDA-MB-468; 10 nM): 73.3%
normalised viability (CAL-51 [13]; 1 nM): 105%
normalised viability (MDA-MB-436; 10 nM): 106%
normalised viability (MDA-MB-453 [14]; 1 nM): 98%
normalised viability (SK-BR-3; 10 nM): 67%
normalised viability (CAL-148 [15]; 1 nM): 93.9%
normalised viability (HDQ-P1 [16]; 1 nM): 113%
normalised viability (Hs578T [17]; 10 nM): 72.8%
normalised viability (MDA-MB-231 [18]; 10 nM): 102%
normalised viability (HCC1937; 10 nM): 47.2%
normalised viability (MFM-223 [19]; 10 nM): 103%
normalised viability (BT-474; 10 nM): 113%
normalised viability (DU-4475 [20]; 1 nM): 98%
normalised viability (CAL-120 [21]; 10 nM): 70.1%
normalised viability (HCC1143; 10 nM): 103%
normalised viability (CAL-120 [22]; 1 nM): 108%
normalised viability (CAL-120 [22]; 100 nM): 40.7%
normalised viability (CAL-120 [22]; 1000 nM): 11.1%

C/C(=C\c1csc(C)n1)[C@@H]1C[C@@H]2O[C@]2(C)CCC[C@H](C)[C@H](O)[C@@H](C)C(=O)C(C)(C)[C@@H](O)CC(=O)N1 [Ixabepilone]
drug sensitivity score (HCC1599 [1]): 0
drug sensitivity score (BT-549 [2]): 5.33
drug sensitivity score (CAL-51 [3]): 11.7
drug sensitivity score (MDA-MB-453 [4]): 0
drug sensitivity score (CAL-148 [5]): 0
drug sensitivity score (HDQ-P1 [6]): 0
drug sensitivity score (Hs578T [7]): 0
drug sensitivity score (MDA-MB-231 [8]): 0.915
drug sensitivity score (MFM-223 [9]): 0
drug sensitivity score (DU-4475 [10]): 0
normalised viability (CAL-85-1; 1 nM): 90.1%
normalised viability (HCC1599 [11]; 10 nM): 94.9%
normalised viability (BT-549 [12]; 10 nM): 95.2%
normalised viability (MDA-MB-468; 10 nM): 91.1%
normalised viability (CAL-51 [13]; 1 nM): 104%
normalised viability (MDA-MB-436; 10 nM): 105%
normalised viability (MDA-MB-453 [14]; 1 nM): 89.6%
normalised viability (SK-BR-3; 10 nM): 80.7%
normalised viability (CAL-148 [15]; 1 nM): 90.5%
normalised viability (HDQ-P1 [16]; 1 nM): 82.7%
normalised viability (Hs578T [17]; 10 nM): 81.2%
normalised viability (MDA-MB-231 [18]; 10 nM): 98%
normalised viability (HCC1937; 10 nM): 95.2%
normalised viability (MFM-223 [19]; 10 nM): 73.3%
normalised viability (BT-474; 10 nM): 96.6%
normalised viability (DU-4475 [20]; 1 nM): 94.3%
normalised viability (CAL-120 [21]; 10 nM): 76.4%
normalised viability (HCC1143; 10 nM): 77%
normalised viability (CAL-120 [22]; 1 nM): 75.6%
normalised viability (CAL-120 [22]; 100 nM): 78.3%
normalised viability (CAL-120 [22]; 1000 nM): 50.4%

C=CCn1c(=O)c2cnc(Nc3ccc(N4CCN(C)CC4)cc3)nc2n1-c1cccc(C(C)(C)O)n1 [MK1775]
drug sensitivity score (HCC1599 [1]): 4.9
drug sensitivity score (BT-549 [2]): 9.39
drug sensitivity score (CAL-51 [3]): 15.7
drug sensitivity score (MDA-MB-453 [4]): 0
drug sensitivity score (CAL-148 [5]): 21.1
drug sensitivity score (HDQ-P1 [6]): 9.56
drug sensitivity score (Hs578T [7]): 9.43
drug sensitivity score (MDA-MB-231 [8]): 19.8
drug sensitivity score (MFM-223 [9]): 5.91
drug sensitivity score (DU-4475 [10]): 0
normalised viability (CAL-85-1; 10 nM): 81.4%
normalised viability (HCC1599 [11]; 100 nM): 99.4%
normalised viability (BT-549 [12]; 100 nM): 97.4%
normalised viability (MDA-MB-468; 100 nM): 95.5%
normalised viability (CAL-51 [13]; 10 nM): 94.1%
normalised viability (MDA-MB-436; 100 nM): 86.3%
normalised viability (MDA-MB-453 [14]; 10 nM): 100%
normalised viability (SK-BR-3; 100 nM): 62.1%
normalised viability (CAL-148 [15]; 10 nM): 87.4%
normalised viability (HDQ-P1 [16]; 10 nM): 114%
normalised viability (Hs578T [17]; 100 nM): 83.2%
normalised viability (MDA-MB-231 [18]; 100 nM): 88.1%
normalised viability (HCC1937; 100 nM): 78.2%
normalised viability (MFM-223 [19]; 100 nM): 83.3%
normalised viability (BT-474; 100 nM): 94.6%
normalised viability (DU-4475 [20]; 10 nM): 109%
normalised viability (CAL-120 [21]; 100 nM): 75.8%
normalised viability (HCC1143; 100 nM): 94.8%
normalised viability (CAL-120 [22]; 10 nM): 91.2%
normalised viability (CAL-120 [22]; 1000 nM): 26%
normalised viability (CAL-120 [22]; 10000 nM): 9.09%

From the supplement of paper PMC4862054
